From publication PMC8066102, “Metabolic Profiles of New Unsymmetrical Bisacridine Antitumor Agents in Electrochemical and Enzymatic Noncellular Systems and in Tumor Cells” (Pharmaceuticals, 2021) come the findings set out here.

What is called inhibition is the share of the control response that was lost under treatment. A lower inhibition goes with a weak effect.

In data set [1] the test system is rat liver microsomes, P450-RLMs Dex-induced. Nature of the data set: Metabolism with rat liver microsomes (Dex-induced P450-RLMs). Type of data set: in vitro ADME. The note with it: 0.05 mM compound, 2 mM NADPH; for conversion rate: 2 mg/mL Dex-induced P450-RLMs, 30 min; for substrate consumption: Dex-induced P450-RLMs, 10 min. The procedure: The initial studies on drug metabolism of new UAs were performed with rat liver microsomes under the optimal conditions. HEPES buffer (0.1 M) at pH 7.4 with 2 mM NADPH and 0.05 mM UAs (C-2028 and C-2045) were selected.
UT-RLMs (2 mg/mL) and P450-RLMs induced with Dex, 3MC, or PB and recombinant P4502C19 and P4503A4 (1 mg/mL) were assayed for activity toward tested UAs as follows. The proteins were incubated in a buffer containing 0.1 M HEPES (pH 7.4), 2 mM MgCl2 with 0.05 mM substrate in total volume 70 µL. Substrates were added also in buffer HEPES, pH 7.4. Reactions were started by the addition of NADPH (2 mM) and were incubated for specified time at 37 °C. The reactions were stopped by the addition of 8.75 µL of 1 M HCl, followed by centrifugation at 13,400 rpm for 10 min to pellet the denatured protein. The supernatant fractions were used for high-performance liquid chromatography (HPLC) analysis. Control reactions omitting substrate were run with each assay. All incubations were performed in two repetitions.
(In general: Microsomes from liver hold many membrane-bound enzymes, among them those of drug oxidation.)

The next data set has as its system HT-29 cells. Nature of the data set: Drug metabolism and medium/cell extract distribution in HT-29 colon tumor cells. Type of data set: cell-based, human. The note with it: HT-29, 5 μM; for drug level in cell extract: 3-48 h; for metabolite formation in cells: post-culture media and cell extracts. The procedure:
To analyze the transformation products of UAs in colon tumor cell lines, HCT-116 or HT-29 cells were plated in 60 mm Petri dishes; after reaching 80% of confluence, cells were treated with 5/25/50 μM of C-2028, C-2045 or C-2053 (prepared as 10 or 2 mM stock solutions in water) for specified time. Half of medium was added to acetonitrile (1:1, v/v), centrifuged (12 min, 13,400 rpm, 4 °C) and the supernatant was analyzed by HPLC (post-culture medium). Cells remaining on the Petri dishes were collected by gentle scraping, sedimented, washed with ice-cold PBS, suspended in ice-cold chloroform and lysed by sonication for 15 min. After 1 h on ice, insoluble material was removed by centrifugation at 13,000 rpm for 20 min at 4 °C. The sediment was discarded and supernatant (chloroform) were evaporated under pressure. Then, sample was suspended in ice-cold 60% methanol and directly analyzed by HPLC (cell extract).

The target of a further data set is T1, UGT2B15 (Homo sapiens, UniProt P54855).
T1 construct: purchased Corning, NY, USA (through DIAG-MED, Poland); host or cells: baculovirus-insect cells (Supersomes)
T1 sequence (P54855 24-530): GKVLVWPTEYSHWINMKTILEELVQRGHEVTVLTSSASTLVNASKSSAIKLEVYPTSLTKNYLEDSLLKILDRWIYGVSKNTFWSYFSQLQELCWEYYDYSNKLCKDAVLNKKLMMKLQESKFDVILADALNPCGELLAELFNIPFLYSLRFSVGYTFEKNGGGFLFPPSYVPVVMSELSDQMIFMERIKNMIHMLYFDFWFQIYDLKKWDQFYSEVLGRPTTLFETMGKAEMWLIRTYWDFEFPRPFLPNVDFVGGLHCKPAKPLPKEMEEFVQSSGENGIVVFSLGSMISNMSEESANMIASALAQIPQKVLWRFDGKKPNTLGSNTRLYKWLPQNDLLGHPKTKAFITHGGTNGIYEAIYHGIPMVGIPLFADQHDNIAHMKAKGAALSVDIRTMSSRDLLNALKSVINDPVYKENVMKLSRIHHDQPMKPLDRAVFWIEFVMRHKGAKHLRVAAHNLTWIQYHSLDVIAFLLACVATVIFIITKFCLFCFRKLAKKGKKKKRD
As to the kind of experiment: Modulation of UGT2B15 activity (TFK glucuronidation). The data set is classed as in vitro ADME. The settings on record: UGT2B15 isoenzyme preparation, pH 7.4, probe TFK, TFK substrate. The procedure: Isoenzyme activity was studied by the rate measurement of β-hydroxylation of testosterone (specific substrate for P4503A4) and of glucuronidation of specific substrates, namely, SN-38 (UGT1A1), EPI (UGT2B7),) and TFK (UGT2B15). All substrate and drug solutions were prepared as 10 mM stock solutions in DMSO and were diluted in […] (pH 7.4). The mixture containing isoenzymes P4503A4/UGT (0.5 mg/mL), probe substrate (0.1 mM), cofactor 2 mM NADPH/5 mM UDPGA and the increasing concentrations of tested UA (0, 0.01, 0.02 and 0.05 mM) was incubated in the reaction buffer containing (i) for P4503A4 0.1 M HEPES, 88 mM MgCl2 and (ii) for UGT 0.1 M HEPES, 88 mM MgCl2, 25 μg/mL alamethicin at 37 °C for 30 min and were terminated by adding 8.75 µL of 0.1 M HCl. The samples were placed in ice for 10 min and centrifuged (10 min, 13,400 rpm). Supernatant fractions were analyzed by HPLC. For more accurate investigation of P4503A4 inhibition by C-2045 and C-2053 the β-hydroxylation rate was measured at various concentrations of testosterone: 0.02, 0.05, 0.1 and 0.2 mM. The inhibitor (UA) concentrations were 0, 0.001, 0.005 and 0.01 mM, whereas the incubation time 30 min and concentration of P4503A4 (0.5 mg/mL).

A short description of data set [2]: Differential pulse voltammetry on glassy carbon electrode. Type of data set: physicochemical. The settings on record: 0.5–20 µM, 0.02 M borate buffer with 0.15 M NaCl, pH 7.4, glassy carbon electrode, vs Ag/AgCl/3 M KCl. The procedure:
To minimize the effects of electrode absorption processes on the current signals, differential pulse voltammetry (DPV) was applied in the positive potential range. […] This behavior was not observed in the case of C-2045, where only one anodic signal at a potential of approximately 0.52 V was observed over the entire studied concentration range (0.5–20 µM). The linear dependency, I = f (cUAs), confirmed that the obtained anodic current signals can be used for analytical purposes; however, the signal of C-2028 was linear over a narrower concentration range than in the case of C-2045.
Cyclic voltammetry (CV) and differential pulse voltammetry (DVP) were performed in 0.02 M borate buffer with 0.15 M NaCl, in water pH 7.4. with Autolab, model PGSTAT 12 potentiostat equipped with an ECD amplifier module (RC time settings: 0.0 s for scan rates > 10 mV/s and 0.1 s for scan rates < 10 mV/s). The voltammetric measurements were done in the three-electrode system consisting of the working electrode (glassy carbon electrode, GCE; ϕ = 3 mm; BAS Instruments), the reference electrode (Ag/AgCl/3 M KCl) and a platinum wire as the auxiliary electrode. Before each experiment the surface of working electrode was polished with 1 μm Al2O3 powder on a wet pad. After each polishing, to remove alumina completely from the electrode surface, the surface was rinsed with direct stream of ultrapure water. […]

On to `CN(CCCNc1c2ccccc2nc2cccc([N+](=O)[O-])c12)CCCNc1ccc2ncn3c4ccccc4c(=O)c1c23` [C-2028], for which, in data set [1], the conversion rate is given as 100% and the substrate consumption result is “completely consumed”. Also, in the data set on HT-29 cells, the “drug level in cell extract” value was “high up to 24 hours and diminished significantly after 48 hours”; the “metabolite formation in cells” value was “did not indicate the presence of metabolites”. On UGT2B15 (highest concentration), this molecule gave an inhibition at 30 min, 0.05 mM of 80%. Also, the inhibition at 30 min on UGT2B15 (lowest concentrations) is approximately 30%.

For the molecule `Cc1ccc([N+](=O)[O-])c2c(NCCCN(C)CCCNc3ccc4ncn5c6ccc(O)cc6c(=O)c3c45)c3ccccc3nc12` [C-2045], the “DPV anodic signal potential” value in data set [2] was “approximately 0.52 V”. Moreover, in data set [1], the conversion rate came out at 80% and the substrate consumption entry was “not metabolized”.

On to `Cc1ccc([N+](=O)[O-])c2c(NCCCN(C)CCCNc3ccc4ncn5c6ccccc6c(=O)c3c45)c3ccccc3nc12` [C-2053], for which, in the data set with HT-29 cells, the “drug level in cell extract” value is “extremely high level” and the “metabolite formation in cells” value is listed as “did not indicate the presence of metabolites”.
